Data on 1 substance can be found in article PMC8112388 (Inorganic chemistry, 2021).

For the test, the target named is human serum albumin (HSA) (Homo sapiens, UniProt P02768). As to the kind of experiment: proton relaxation enhancement titration. In kind it is binding. The settings on record: read-out: KD(HSA).
Sequence of human serum albumin (HSA) (P02768 25-609): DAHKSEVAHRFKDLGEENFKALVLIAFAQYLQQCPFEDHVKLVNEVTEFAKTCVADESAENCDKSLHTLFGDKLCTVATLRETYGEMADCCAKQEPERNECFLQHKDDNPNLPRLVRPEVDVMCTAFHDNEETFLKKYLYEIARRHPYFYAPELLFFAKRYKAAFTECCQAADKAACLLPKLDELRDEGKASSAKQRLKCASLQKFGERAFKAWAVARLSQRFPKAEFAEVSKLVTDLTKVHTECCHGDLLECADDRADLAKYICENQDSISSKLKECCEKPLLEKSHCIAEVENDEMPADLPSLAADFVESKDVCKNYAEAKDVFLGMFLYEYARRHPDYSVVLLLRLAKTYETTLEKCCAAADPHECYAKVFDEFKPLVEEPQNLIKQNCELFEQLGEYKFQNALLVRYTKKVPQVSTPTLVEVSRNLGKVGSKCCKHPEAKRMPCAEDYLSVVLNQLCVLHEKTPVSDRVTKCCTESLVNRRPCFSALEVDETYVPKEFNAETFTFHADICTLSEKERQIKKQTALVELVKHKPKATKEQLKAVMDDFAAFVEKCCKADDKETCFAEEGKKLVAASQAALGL

In the case of MnPyC3A–BPEN [Mn(3)], the Kd (commonly the constant that tells how readily two partners part at equilibrium) is 28 ± 1 µM.
